Laboratory results from article PMC12670427, “FDA Drug Repurposing Uncovers Modulators of Dopamine D2 Receptor Localization via Disruption of the NCS‑1 Interaction” (Journal of Medicinal Chemistry, 2025).
Several values for one entry are separate records, joined by “and”; a condition that tells them apart may be missing. Identical values can stand only once. Counter-ions that a name gives are not always drawn.

Key:
full-length NCS-1 [1] = target: T1, full-length NCS-1 (Homo sapiens, UniProt P62166); assay: Tryptophan intrinsic emission fluorescence binding to full-length NCS-1; settings: full-length NCS-1 5 μM, Trp emission at 330 nm, 35 °C, apparent Kd mean ± SD
T1 construct: For biophysical and crystallographic assays, full-length human NCS-1; made in house
T1 sequence (P62166 whole entry): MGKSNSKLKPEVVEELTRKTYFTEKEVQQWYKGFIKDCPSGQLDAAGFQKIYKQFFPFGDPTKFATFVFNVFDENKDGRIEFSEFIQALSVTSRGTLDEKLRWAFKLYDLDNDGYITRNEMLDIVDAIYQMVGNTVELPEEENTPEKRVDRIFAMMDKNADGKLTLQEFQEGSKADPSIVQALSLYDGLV
Experimental: To experimentally assess the binding of the FDA-approved drug library to NCS-1 we used tryptophan emission fluorescence. ,, Fluorescence intensity changes were measured at 330 nm in full-length NCS-1 upon increasing concentrations of the selected compounds (Figure A).

NCS-1ΔH10 = target: T2, NCS-1ΔH10 (Homo sapiens, UniProt P62166); assay: Intrinsic emission fluorescence binding to NCS-1ΔH10; settings: NCS-1ΔH10, intrinsic emission fluorescence; read-out: apparent binding affinity for H10-truncated NCS-1
T2 construct: NCS-1 construct lacking helix H10; made in house
T2 sequence (P62166 1-177 limits assumed, stated change not applied): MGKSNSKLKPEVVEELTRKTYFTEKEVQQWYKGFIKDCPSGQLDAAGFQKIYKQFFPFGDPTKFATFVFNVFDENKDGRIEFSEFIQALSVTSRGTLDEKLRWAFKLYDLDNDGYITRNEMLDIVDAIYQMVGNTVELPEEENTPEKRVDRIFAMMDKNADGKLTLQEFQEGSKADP
Experimental: To determine the affinity of the FDA-approved drugs for full-length NCS-1 or NCS-1ΔH10, we used fluorescence techniques, since the presence of tryptophan (Trp) and tyrosine (Tyr) residues in NCS-1 sequence confers the protein intrinsic emission fluorescence when excited at 295 nm. Fluorescence intensity was monitored at 330 nm and 35 °C with a nano-DSF machine (nanoTemper). Protein concentration was set to 5 μM in a buffer containing Tris 50 mM pH 8.0, NaCl 125 mM, CaCl2 5 μM, 5% DMSO. Ligand concentration was increased up to 150 μM. Three independent experiments were performed for each protein:ligand ratio. […] In fact, compound FDA-02, 09, 11, 15, 21, and 22 were measured using SPR due to their high intrinsic emission at 330 nm. The apparent dissociation constant, K d, was obtained by using a least-squares algorithm to fit the recorded data to the equation previously described. Apparent K d values are reported as mean ± SD. ,
Prior crystallization, the contribution of the helix H10 to ligand binding was assessed in case this information could guide construct selection for structural studies. […] Given the initial high affinity of AZS for full-length NCS-1, the affinity for the H10-truncated construct was not measured. Initial crystallization screenings yielded to crystals of ATV in complex with full-length NCS-1. […]

[2] = known drug property listed in Supplementary Table 1, no reference given; cited from earlier work
[3] = system: D2R subcellular localization in HEK293 cells; assay: Sequential immunostaining for D2R localization (membrane vs cytoplasm); assay type: cell-based, human; settings: for effect of trafficking tool compounds on NCS-1-induced D2R membrane localization: HEK293 cells, NCS-1 overexpression
Experimental: HEK293 cells were seeded on poly-D-lysine-coated glass coverslips in 24-well plates. Following transfection and drug treatments, cells were fixed with 2% paraformaldehyde (PFA) for 10 min and with 4% PFA for an additional 10 min at room temperature. Coverslips with fixed cells were then blocked in PBS containing 10% normal goat serum (NGS) for 30 min at room temperature.
After three PBS washes, fluorescence was fixed with 10% formaldehyde for 3 min. The second round started with a blocking step using PBS containing 10% NGS and 0.03% Triton X-100 for 1 h at room temperature. […] Coverslips were washed with PBS and mounted using ProLong Gold Antifade (Thermo Fisher Scientific) with Hoechst for nuclear counterstaining. Confocal images were acquired using either a Leica SP5 or a Nikon ECLIPSE Ti microscope, depending on the experiment. […] Individual confocal images were processed by setting intensity thresholds for the green (cytoplasmic) and red (membrane) channels. Fluorescence intensity was then measured separately for each channel, and the relative proportion of green to red signal was calculated for each image.

NCS-1/D2R interaction = target: T3, NCS-1/D2R interaction (Homo sapiens, UniProt P62166); assay: Proximity ligation assay (PLA) with flow cytometry; assay type: cell-based; settings: HEK293 cells, 5 μM, 16 h; vehicle set to 100%; mean ± SD
T3 construct: expressed in transfected cells; host or cells: HEK293
T3 sequence (P62166 2-190 limits assumed): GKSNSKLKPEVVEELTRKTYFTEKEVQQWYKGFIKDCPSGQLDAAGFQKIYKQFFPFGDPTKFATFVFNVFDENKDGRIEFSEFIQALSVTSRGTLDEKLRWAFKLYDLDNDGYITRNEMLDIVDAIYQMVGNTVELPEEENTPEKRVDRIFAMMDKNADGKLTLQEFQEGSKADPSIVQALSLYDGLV

full-length NCS-1 [4] = target: T1, full-length NCS-1; assay: Surface plasmon resonance over CM4-immobilized NCS-1; assay type: binding; settings: SPR, NCS-1 immobilized on CM4 chip, 25 °C; used for compounds that emit at 330 nm; read-out: NCS-1/FDA Affinity, Kd
Source text: In these experiments, full-length NCS-1 was cross-linked to the surface of the biosensor, through its lysine amino acids, since these residues are concentrated on the upper surface and opposite to the hydrophobic crevice. This arrangement ensured that the hydrophobic crevice remained exposed to the solvent.
NCS-1 was immobilized on a CM4 sensor chip (Biacore, GE) following a standard amine coupling method. The carboxymethyl dextran surface of the flow cell 2 was activated by injecting a 1:1 mixture of 0.4 M EDC and 0.1 M NHS for 7 min. The protein was then covalently coupled to the surface via a 7 min injection at several dilutions, with a final concentration of 100 μg/mL in 10 mM sodium acetate, pH 4.0. Unreacted N-hydroxysuccinimide esters were quenched by a 7 min injection of 0.1 M ethanolamine-HCl pH 8.0, achieving an immobilization level of 5000 RUs. Flow cell 1, subjected to the same amine coupling procedure but without protein, served as a reference (Supplementary Figure 3A). Prior to use, 10 mM stock solutions of FDA-approved drugs were serially diluted to final concentration of 100 μM in running buffer. […] After dissociation, an additional wash step was performed using a 50% DMSO solution. Regeneration was not required.
(§1) Sensorgrams data were double-referenced and solvent-corrected using the BiaEvaluation X-100 software (Biacore, GE).

[5] = Solubility under the binding assay conditions; assay type: physicochemical; settings: SPR running buffer; precipitated on the sensor chip
Source text: as §1

[6] = read-out: NCS-1/FDA Affinity, Kd

Molecule | Kd (full-length NCS-1 [1]; [6]) | Crossing the blood-brain barrier [2] | further results
CC(C)c1c(C(=O)Nc2ccccc2)c(-c2ccccc2)c(-c2ccc(F)cc2)n1CC[C@@H](O)C[C@@H](O)CC(=O)O [Atorvastatin] | 53 µM and 53.1 µM |  | Kd (NCS-1ΔH10): 17 µM
CCOc1nc2cccc(C(=O)OCc3oc(=O)oc3C)c2n1Cc1ccc(-c2ccccc2-c2noc(=O)[nH]2)cc1 [Azilsartan medoxomil] |  | Low penetrance | 
C[C@H]1CCC/C=C/[C@@H]2C[C@H](O)C[C@H]2[C@H](O)/C=C/C(=O)O1 [BFA, Brefeldin A] |  |  | effect of trafficking tool compounds on NCS-1-induced D2R membrane localization [3]: prevented the NCS-1-induced increase in membrane D2R
CCN(CC)CCCC(C)Nc1ccnc2cc(Cl)ccc12 (centres unmarked) [Chloroquine] | 200 ± 35 µM | Yes | 
CCN(CC)CCOc1ccc(C(=C(Cl)c2ccccc2)c2ccccc2)cc1 [Clomiphene citrate] |  | No | 
CCCCCCOC(=O)NC(=N)c1ccc(NCc2nc3cc(C(=O)N(CCC(=O)OCC)c4ccccn4)ccc3n2C)cc1 [Dabigatran etexilate] | 13.2 ± 2.5 µM | No | 
COC(=O)N[C@H](C(=O)N1CCC[C@H]1c1nc(-c2ccc(-c3ccc(-c4c[nH]c([C@@H]5CCCN5C(=O)[C@@H](NC(=O)OC)C(C)C)n4)cc3)cc2)c[nH]1)C(C)C [Daclatasvir] | 7.2 ± 0.1 µM | No | PPI modulation (PLA): NCS-1/D2R binding relative to vehicle-treated controls (NCS-1/D2R interaction): 114.6 ± 17.4%
CC(C)CN(C[C@@H](O)[C@H](Cc1ccccc1)NC(=O)O[C@H]1CO[C@H]2OCC[C@H]21)S(=O)(=O)c1ccc(N)cc1 [Darunavir] |  | No | 
O=C(N/N=C/c1ccc(O)c(O)c1)c1cc2ccccc2cc1O [Dynasore] |  |  | effect of trafficking tool compounds on NCS-1-induced D2R membrane localization [3]: did not significantly affect
CN1C[C@H](C(=O)N[C@]2(C)O[C@@]3(O)[C@@H]4CCCN4C(=O)[C@H](Cc4ccccc4)N3C2=O)C=C2c3cccc4[nH]cc(c34)C[C@H]21 [Ergotamine] |  | No | Kd (full-length NCS-1 [1]; NCS-1/FDA Affinity, Kd): 122 ± 18 µM
C[C@]12CC[C@@H]3c4ccc(O)cc4C[C@@H](CCCCCCCCC[S+]([O-])CCCC(F)(F)C(F)(F)F)[C@H]3[C@@H]1CC[C@@H]2O (some centres unmarked) [Faslodex] |  | No | 
CCN(CCO)CCCC(C)Nc1ccnc2cc(Cl)ccc12 (centres unmarked) [Hydroxychloroquine sulfate] | 353 ± 138 µM | Yes | 
CCCCCCCN(CC)CCCC(O)c1ccc(NS(C)(=O)=O)cc1 (centres unmarked) [Ibutilide fumarate] |  | No | NCS-1/FDA Affinity, Kd (full-length NCS-1 [1]): No affinity
Cc1ccc(NC(=O)c2ccc(CN3CCN(C)CC3)cc2)cc1Nc1nccc(-c2cccnc2)n1 [Imatinib] |  | Yes | 
CS(=O)(=O)CCNCc1ccc(-c2ccc3ncnc(Nc4ccc(OCc5cccc(F)c5)c(Cl)c4)c3c2)o1 [Lapatinib] |  | No | 
Cc1c(O)cccc1C(=O)N[C@@H](CSc1ccccc1)[C@H](O)CN1C[C@H]2CCCC[C@H]2C[C@H]1C(=O)NC(C)(C)C [Nelfinavir] | 47.6 ± 4.1 µM | No | PPI modulation (PLA): NCS-1/D2R binding relative to vehicle-treated controls (NCS-1/D2R interaction): 112.0 ± 12.7%
CNCCCC1c2ccccc2C=Cc2ccccc21 [Protriptyline hydrochloride] |  | Yes | 
CCCN(CCC)CCc1cccc2c1CC(=O)N2 [Ropinirole] |  |  | effect of trafficking tool compounds on NCS-1-induced D2R membrane localization [3]: reversed this effect
OCc1cc(C(O)CNCCCCCCOCCCCc2ccccc2)ccc1O (centres unmarked) [Salmeterol] |  | Yes | PPI modulation (PLA): NCS-1/D2R binding relative to vehicle-treated controls (NCS-1/D2R interaction): 96.5 ± 17.2%; Kd (full-length NCS-1 [4]): 68.2 ± 17.9 µM
CCN(CC)CCNC(=O)c1c(C)[nH]c(/C=C2\C(=O)Nc3ccc(F)cc32)c1C [Sunitinib] |  | No | 
N#Cc1ccc2[nH]cc(CCCCN3CCN(c4ccc5oc(C(N)=O)cc5c4)CC3)c2c1 [Vilazodone] | 34 µM and 34.4 µM | Yes | effect on D2R localization in the absence of NCS-1 overexpression ([3]; HEK293 cells transfected with D2R alone): affected D2R localization; Kd (NCS-1ΔH10): 8 µM
O=C1Cc2cc(CCN3CCN(c4nsc5ccccc45)CC3)c(Cl)cc2N1 [ziprasidone] |  |  | solubility under the experimental conditions [5]: low solubility
Capreomycin sulfate |  |  | effect on NCS-1-induced D2R membrane localization ([3]; HEK293 cells cotransfected with D2R and NCS-1, 5 μM, 2 h): modest effect
